Source: US6610315B2, “Topical application of stable hydroalcoholic compositions for maintaining or improving skin conditions, and delivering fragrance to skin” (3M Innovative Properties Company, priority 1995, dated 2003)

What was measured:
[1] = test system: S. Aureus ATCC 14154 (lab strain 502); assay: Minimum Inhibitory Concentration (MIC); format: cell-based
Method: (§1) An overnight culture of E. coli ATCC8739 (lab strain 223) and/or S. Aureus ATCC 14154 (lab strain 502) grown on trypticase soy agar plates was resuspended in Mueller-Hinton Broth to a cell density of 0.6-1.2×10^6 colony forming units per milliliter. Chlorhexidine samples were prepared by adjusting CHG to 512 μg/ml in Mueller-Hinton Broth and serially diluting in two-fold steps in Mueller-Hinton Broth. The CHG-containing Mueller-Hinton Broth was placed in 96-well sterile microliter plates and each well was inoculated with the bacteria. The plates were then incubated for 24-48 hrs at 37° C. Bacterial growth was determined visually by comparing the plates.

[2] = test system: E. coli ATCC8739 (lab strain 223); assay: Minimum Inhibitory Concentration (MIC); format: cell-based
Method: as §1

[3] = Example 9, lowest concentration of CHG giving complete kill, 24-48 hrs at 37° C.
[4] = Example 24, CHG at 0.5% by weight where present

N=C(NCCCCCCNC(=N)NC(=N)Nc1ccc(Cl)cc1)NC(=N)Nc1ccc(Cl)cc1.O=C(O)[C@H](O)[C@@H](O)[C@H](O)[C@H](O)CO.O=C(O)[C@H](O)[C@@H](O)[C@H](O)[C@H](O)CO [0.5% CHG std., chlorhexidine gluconate]
4 µg/mL: MIC (μg/ml) S. aureus [1, 3] | S aureus 502 MIC [1, 4] | MIC (μg/ml) E. coli [2, 3] | E. coli 223 MIC [2, 4]
